{"source": "patent US9205073B2", "about": "“Method for treating virus infection using derivative of aniline” (CHINA MEDICAL UNIVERSITY, priority 2014, dated 2015)", "key": {"[1]": {"system": "JAK-STAT, AkT-mTOR and ERK-CREB signaling pathway-related proteins", "assay": "Western blot of signaling pathway phosphorylation in JEV T1P1-infected TE671 cells", "type": "cell-based", "details": "36 hours, 2.5-250 μM", "protocol": "TE671cells were cultured in a 6-well culture plate at an initial density of 3×10^5 per well with 2 ml of 2% FBS-containing MEM medium per well. The cells were incubated in an incubator (37° C., 5% CO2) overnight. The medium was removed until the cells adhered to the plate. 1 ml of fresh 2% FBS-containing MEM medium was simultaneously added into each well. The cells were infected with JEV T1P1virus strain (M.O.I.=0.05). Different concentrations of compound 1 (the final concentrations were 0, 2.5, 25, 125 and 250 μM, respectively) were added into different wells. The cells were incubated in an incubator (37° C., 5% CO2) for 36 hours. The supernatant was removed, and the TE671 cells were washed with PBS. The PBS was removed, and 150 μl Trypsin-EDTA was added into each well. The cells were incubated in an incubator at 37° C. for 3 minutes. Then, 1 ml MEM medium was added into each well to neutralize EDTA, and the cells were separately collected into 15 ml tubes and precipitated by centrifugation (2000 rpm, 3 minutes). The supernatants were removed. The cells were resuspended with 1 ml PBS per tube, transferred into 1.5 ml microtubes respectively, and precipitated by centrifugation (2000 rpm, 3 minutes). The supernatants were removed and 100 μl radioimmunoprecipitation buffer (RIPA buffer) was added into each well. […]\nThe above protein samples were analyzed by protein electrophoresis. […]"}, "[2]": {"assay": "MTT assay, cell survival / CC50 in RD cells", "type": "cell-based", "details": "human, read-out: concentration of 50% cytotoxicity (CC50)", "protocol": "In this example, 3-(4,5-dimethylthiazol-2-yl)-2,5-diphenyl tetrazolium bromide (MTT) was used to determine if the survival rate of BHK-21 cells, TE671cells and RD cells would be influenced when being treated with different concentrations of compound 1 prepared in Example 1. The concentration of 50% cytotoxicity (CC50) of compound 1 in BHK-21 cells, TE671cells and RD cells was also calculated.\nMTT is a water-soluble tetrazolium salt which can react in the mitochondrial respiratory chain in living cells to metabolize and reduce the tetrazolium bromide shown in the structure of MTT and to form an water-insoluble purple crystal formazan under the reaction of succinate dehydrogenase (SDH) and cytochrome c (cyt c). The amount of the produced crystal is directly proportional to the number of living cells (because the SDH will disappear from dead cells, and thus, the MTT cannot be reduced). Furthermore, a mitochondrium is an organelle in cells that is most sensitive to the environment, and thus, the MTT assay can serve as a marker for the survival rate of cells treated by the drug.\nBHK-21 cells, TE671cells and RD cells were cultured in a 96-well culture plate, respectively, with an initial density of 3×10^3 per well, and with 100 μl of 2% FBS-containing MEM medium per well. […] The absorbances of the samples were measured by ELISA at a wavelength of 570/630 nm."}}, "data": [{"smiles": "CCOC(=O)C1=C(Nc2cc(C)cc(C)c2)OCC1=O", "note": "[Compound 1, ethyl 2-(3′,5′-dimethylanilino)-4-oxo-4,5-dihydrofuran-3-carboxylate]", "values": [{"measurement": "phosphorylation levels of JAK-STAT, AkT-mTOR and ERK-CREB signaling pathway-related proteins", "setting": "[1]", "result": "increased in a concentration dependent manner"}, {"measurement": "CC50 at 48 h", "setting": "[2]", "result": 222, "unit": "µM"}]}]}
